How the values were obtained:
Assay type in all cases: in vivo
[1] = test system: Meloidogyne incognita J2s; experiment: Tomato invasion assay, M. incognita J2s
Protocol: (§1) Predicted uNLPs from both M. incognita and G. pallida were synthesised by EZBiolab and dissolved into pH adjusted ddH2O to make a 5 mM stock which was aliquoted and stored at −20° C. J2s of both M. incognita and G. pallida were incubated for 24 hours in 200 μl of each peptide in a 24 well plate (SPL Lifesciences, South Korea) at a defined concentration.
(§2) Tomato seeds were sterilised with 2.5% NaOCl for 15 minutes, washed 5 times in ddH2O and germinated on 0.5% Murashige and Skoog plates at 23° C. […] Invasion assays were performed by mixing 500 pre-treated M. incognita or G. pallida J2s with agar slurry and a single tomato seedling (2 days post germination) in a 6 well plate. Assays were left at 23° C. for 24 hours in the case of M. incognita and at 18° C. for 24 hours in the case of G. pallida under a 16 hour light and 8 hour darkness cycle. Seedlings were stained using acid fuschin [69] and the number of nematodes within the roots counted.

[2] = test system: Meloidogyne incognita J2s; experiment: Serotonin-induced stylet thrusting assay, M. incognita J2s; conditions: 100 μM uNLP, 24 h, 5 mM serotonin
Protocol: as §1
Stylet thrusting assays where performed by incubating 100 M. incognita or G. pallida J2s for 15 minute in 5 mM or 2 mM serotonin (Sigma Aldrich, USA), respectively. J2s were placed on a glass slide and stylet thrusts were counted for randomly selected J2s, for 1 minute each. Counting took place for a maximum of 15 minutes. Longer incubations yielded inconsistent results. At least 30 J2s were counted for each neuropeptide treatment.

Globodera pallida J2s = experiment: Tomato invasion assay, G. pallida J2s; conditions: exogenous pre-treatment of J2s
Protocol: as §1, §2

[3] = test system: Meloidogyne incognita J2s; experiment: B. subtilis and C. reinhardtii plant protection assay, M. incognita; conditions: tomato
Protocol: as §2
B. subtilis were grown overnight in LB media containing ampicillin (100 μg/ml) at 37° C. with shaking, and harvested in the log phase of growth determined by measuring OD600nm. Five ml of culture at 0.5 OD was spun down and the pellet mixed with 3 ml of agar slurry and 500 J2s from either G. pallida or M. incognita. C. reinhardtii clones were grown at 23° C. with shaking, cultures in the log phase were measured at OD750 and 5 ml of culture at 0.5 OD was pelleted by centrifugation. C. reinhardtii pellets were mixed with 3 ml of agar slurry and 500 J2s from either G. pallida or M. incognita. Plant invasion assays were performed as described above.
uNLP secretion inserts, and vector pChlamy_3 were digested using Kpnl/Xbal (New England Biolabs, USA), ligated using T4 ligase (New England Biolabs, USA), and cloned into Escherichia coli One Shot® TOP10 chemically competent cells (Life Technologies, USA) following manufacturer's instructions. Ampicillin (Sigma Aldrich, USA) was used to select E. coli containing the pChlamy_3 plasmid, which was subsequently extracted using the High Pure Plasmid Isolation Kit (Roche) and sequenced (Eurofins Genomics, UK) to identify correct clones. C. reinhardtii was transformed by electroporation following manufacturer's instructions (GeneArt® Chlamydomonas Engineering Kit, Life Technologies) and individual colonies grown on TAP-Agar-Hygromycin plates (10 μg/mL) (Sigma Aldrich, USA) at 23° C. Colonies were picked and grown at 23° C. in 100 ml TAP growth media (Invitrogen, USA) with constant orbital agitation. qRT-PCR was performed to identify clones with the highest level of uNLP expression, which were then selected for downstream assays (pChlamy universal FWD: […], nlp-15b REV: CTACTAGTCGAGGCCGGTA; Mi-nlp-9f REV: GAACGGGCGGATGAAGTAG).
uNLP secretion inserts, and vector pBE-S were digested using Xbal/Mlul (New England Biolabs, USA), ligated using T4 ligase (New England Biolabs, USA), and cloned into E. coli One Shot® TOP10 chemically competent cells (Life Technologies, USA) following manufacturer's instructions. […]

[4] = test system: Steinernema carpocapsae infective juveniles; experiment: S. carpocapsae host-finding assay (non-target nematode); conditions: S. carpocapsae IJs, 100 μM, 24 h; no statistically significant impact; control 0.2315
Protocol: S. carpocapsae were cultured in Galleria mellonella at 23° C. Infective juveniles (IJs) were collected using a White trap in PBS. Freshly emerged IJs were used for each assay. 100 IJs were incubated for 24 hours in 100 μM of selected uNLPs, and host-finding assays performed as in Morris et al..

SFDSFTGPGFTGLD [Mi-NLP-15b]
host invasion compared to controls ([1]; 100 μM uNLP, 24 h, tomato seedlings, normalised to negative control): 32.22%+/−8.122
J2 invasion relative to control ([1]; Mi-NLP-15b 100 nM, 24 h): 69.9%+/−10.66
J2 invasion relative to control ([1]; Mi-NLP-15b 1 μM, 24 h): 59.05%+/−8.545
J2 invasion relative to control ([1]; Mi-NLP-15b 10 μM, 24 h): 54.62%+/−8.362
J2 invasion relative to control ([1]; Mi-NLP-15b 100 μM, 24 h (dilution series)): 35.06%+/−6.407
rate of serotonergic-induced stylet thrusting compared with controls [2]: 129.9%+/−10.59
effect of exogenous peptide exposure on G. pallida host invasion (in words) (Globodera pallida J2s): does not inhibit host invasion
M. incognita invasion relative to control ([3]; B. subtilis cultures secreting the uNLP): 26.63%+/−8.12
M. incognita invasion relative to untransformed C. reinhardtii ([3]; C. reinhardtii cultures secreting the uNLP): 10.82%+/−6.574
insect host-finding index (Cl) towards Galleria mellonella [4]: 0.2225+/−0.043

Source: US20200123208A1, “PEPTIDES AND NEMATICIDAL COMPOSITIONS” (priority 2017, published 2020)
